One data set has as its system murine coronavirus (MHV). Briefly: Powdered alcohol mixed directly with MHV, L929 cell infection/TCID50 assay. The conditions noted are these: FIG. 6; CD encapsulated ethanol vs gamma-CD alone. Type of data set: cell-based, Mouse Hepatitis Virus. Here is the method:
The powders obtained in Example 1 were tested for their effectiveness in inactivating the murine coronavirus in 5 minutes using L929 cells. L929 cells at 5×10^5 cells/ml concentration in 100 μl volume in a 96 wells format were used. First, the virus stock was diluted 10 times in 1×PBS. Then 20 μl MHV (multiplicity of infection [MOI] 3.0) was mixed with 10 mg and 20 mg powdered alcohol for 5 minutes at room temperature with repetitive pipetting to maximise the interaction between the virus and powdered alcohol. To mitigate the potential side effects of the powdered alcohol on L929 cells, powder treated cell culture media (cDMEM) was prepared as a control. After recovering the virus and the control media from the mixture, treated samples (triplicates) were immediately diluted in 20 μl cDMEM, thereby bringing the final MOI to 1.0. In a 96 wells format, 8 serial dilutions (DF=5.0) were prepared per sample together with non-treated virus and cell culture media (cDMEM) as positive and negative controls, respectively. Cell infection phenotype as cell death and cytopathic effect (CPE) was observed under a benchtop light microscope (20× magnification) at 24-, 48- and 72-hours post infection (hpi) intervals (FIG. 4). TCID50/ml values per experiment were calculated at 72 hpi using Reed&Muench Calculator. […]

The test system of data set [1] is cell lines.
For data set [2], the system named is cell lines. As to the kind of experiment: Toxicity on cell lines seen in the antiviral experiments. The conditions noted are these: 8% PVA + glutaraldehyde coatings.

The values below come from patent US20240196886A1, “ANTIBACTERIAL AND/OR ANTIVIRAL COATINGS” (CODIKOAT LTD, priority 2021, published 2024).

Each structure is given as a SMILES string.

Regarding `OC[C@H]1O[C@@H]2O[C@H]3[C@H](O)[C@@H](O)[C@@H](O[C@H]4[C@H](O)[C@@H](O)[C@@H](O[C@H]5[C@H](O)[C@@H](O)[C@@H](O[C@H]6[C@H](O)[C@@H](O)[C@@H](O[C@H]7[C@H](O)[C@@H](O)[C@@H](O[C@H]8[C@H](O)[C@@H](O)[C@@H](O[C@H]9[C@H](O)[C@@H](O)[C@@H](O[C@H]1[C@H](O)[C@H]2O)O[C@@H]9CO)O[C@@H]8CO)O[C@@H]7CO)O[C@@H]6CO)O[C@@H]5CO)O[C@@H]4CO)O[C@@H]3CO` [CD alone, gamma-cyclodextrin], the log reduction in the data set on murine coronavirus (MHV) stood at 1 log.

Consider `OCl` [HOCl, hypochlorous acid], for which the “cell death and toxicity” value in the data set on cell lines [1] is “cell death and toxicity were observed”.

Turning to `O=CCCCC=O` [glutaraldehyde], the “glutaraldehyde concentration above which toxicity on cell lines was observed” value with cell lines [2] is “higher than 0.7%”.
